How the values were obtained:
MNK1 = MNK1 (Homo sapiens (Human), UniProt Q9BUB5); assay: MNK Biochemical Enzymatic Assay (ADP-Glo), MNK1 binding assay
Experimental: MNK Biochemical Enzymatic Assay. This protocol establishes the binding assays for MNK1 and MNK2 using ADP-Glo assay. MNK phosphorylates the substrate and converts ATP to ADP, which was detected by Envision and used to reflect the reminding activity of MNK. Reagents and equipment used in the assay are listed below, followed by the protocol.
• a) Add 50 μL compound to 384-well dilution plate • b) Dilute compound 1:3 in succession in DMSO for each column for 10+0 pts (refer to dilution plate map) • c) Transfer 0.1 μL diluted compound solution in each row to 384 assay plate using Echo, each column containing 2 replicates (refer to assay plate map) • d) Add 5 μL enzyme working solution to 384-well assay plate, centrifuge 1000 RPM for 1 min • e) Incubate at 25° C. for 15 min • f) Add 5 μL substrate working solution to initiate reaction • g) Incubate at 25° C. for 60 min • h) Add 10 μL ADP Glo reagent, centrifuge 1000 RPM for 1 min • i) Incubate at 25° C. for 60 min • j) Add 20 μL kinase detection reagent, centrifuge 1000 RPM for 1 min • k) Incubate at 25° C. for 60 min • l) Read on Envision for US LUM as RLU • m) Data analysis: IC50s were determined based on a non-linear regression analysis of data collected.

MNK2 = MNK2 (Homo sapiens (Human), UniProt Q9HBH9); assay: MNK Biochemical Enzymatic Assay (ADP-Glo), MNK2 binding assay
Sequence of MNK2 (Q9HBH9 whole entry): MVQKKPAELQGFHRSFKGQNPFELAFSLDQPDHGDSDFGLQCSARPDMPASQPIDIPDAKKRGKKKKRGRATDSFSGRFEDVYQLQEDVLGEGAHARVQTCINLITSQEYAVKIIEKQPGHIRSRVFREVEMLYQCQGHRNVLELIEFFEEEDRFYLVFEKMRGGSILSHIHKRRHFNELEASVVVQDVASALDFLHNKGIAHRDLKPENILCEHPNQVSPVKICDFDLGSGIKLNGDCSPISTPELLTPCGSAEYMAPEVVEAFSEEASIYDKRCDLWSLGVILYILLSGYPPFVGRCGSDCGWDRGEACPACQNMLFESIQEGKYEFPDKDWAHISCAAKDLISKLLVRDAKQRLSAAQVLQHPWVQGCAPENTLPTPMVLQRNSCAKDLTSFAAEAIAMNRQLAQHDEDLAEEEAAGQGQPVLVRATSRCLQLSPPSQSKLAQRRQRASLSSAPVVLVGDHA
In short: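 Human MNK1 or MNK2 was preincubated with a 10-point, 1:3 serial dilution of compound for 15 min at 25 °C. Substrate was then added and the reaction ran 60 min at 25 °C. ADP formed was read by ADP-Glo luminescence, and IC50 came from non-linear regression.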

TMD-8 cell p-IF4E = assay: p-eIF4E Signaling Cellular Assay (CisBio HTRF) in TMD-8 cells; format: cell-based; conditions: Homo sapiens, TMD8, 40 min, 40 min treatment
In short: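 TMD-8 cells (20 k/well, exponential phase, RPMI 1640 + 10% FBS) treated with compound for 40 min at 37 °C, then lysed for 30 min and incubated overnight at RT with HTRF antibodies. 665/620 nm ratio converted to % inhibition vs controls; IC50 from variable-slope nonlinear fit.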

Sequence of MNK1 (Q9BUB5 other isoform, or with tags, fused parts or gaps isoform Q9BUB5-2): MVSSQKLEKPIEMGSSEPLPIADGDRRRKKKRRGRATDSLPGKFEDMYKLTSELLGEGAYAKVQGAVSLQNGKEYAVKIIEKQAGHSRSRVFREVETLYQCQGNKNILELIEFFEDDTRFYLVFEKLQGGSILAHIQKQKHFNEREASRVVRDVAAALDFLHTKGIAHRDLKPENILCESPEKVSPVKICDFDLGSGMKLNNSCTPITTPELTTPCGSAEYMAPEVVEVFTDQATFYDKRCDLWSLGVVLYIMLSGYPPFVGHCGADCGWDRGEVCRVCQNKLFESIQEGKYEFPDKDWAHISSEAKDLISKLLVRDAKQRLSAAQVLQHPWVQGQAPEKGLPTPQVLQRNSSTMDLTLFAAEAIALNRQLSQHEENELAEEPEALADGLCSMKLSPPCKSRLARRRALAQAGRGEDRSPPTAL

SMILES | IC50 (MNK1) [nM] | IC50 (MNK2) [nM] | IC50 (TMD-8 cell p-IF4E) [nM]
Cc1cc(Nc2cc(N)ncn2)c(=O)n2c1C(=O)N[C@]21C[C@H]2CC[C@@H]1C2 [Compound IIa, (1R,2R,4S)-6′-((6-Aminopyrimidin-4-yl)amino)-8′-methyl-2′H-spiro[bicyclo[2.2.1]heptane-2,3′-imidazo[1,5-a]pyridine]-1′,5′-dione] | 0.1 to 10 | 0.1 to 10 | 
CCN1CCN(c2ccc(Nc3cc(Nc4cc(C)c5c([n+]4[O-])C4(CCCCC4)NC5=O)ncn3)nc2)CC1 [Compound XXIX-AAO, 2′-[(6-{[5-(4-ethylpiperazin-1-yl)pyridin-2-yl]amino}pyrimidin-4-yl)amino]-4′-methyl-5′-oxo-6′H-spiro[cyclohexane-1,7′-pyrrolo[3,4-b]pyridin]-1′-ium-1′-olate] |  | 0.1 to 10 | 0.1 to 10
Cc1ccnc(Nc2cc(Nc3cc(C)c4c([n+]3[O-])C3(CCCCC3)NC4=O)ncn2)c1 [Compound XXIX-AAI, 4′-methyl-2′-((6-((4-methylpyridin-2-yl)amino)pyrimidin-4-yl)amino)-5′-oxo-5′,6′-dihydrospiro[cyclohexane-1,7′-pyrrolo[3,4-b]pyridine] 1′-oxide] |  | 0.1 to 10 | 0.1 to 10
Cn1ccc(Nc2cc(Nc3nc4c(s3)C(=O)NC43CCCCC3)ncn2)n1 [Compound XXVIII-M, 2′-((6-((1-methyl-1H-pyrazol-3-yl)amino)pyrimidin-4-yl)amino)spiro[cyclohexane-1,4′-pyrrolo[3,4-d]thiazol]-6′(5′H)-one] |  | 0.1 to 10 | 0.1 to 10
O=C1NC2(CCCCC2)c2cc(Nc3cc(N[C@H]4CCOC4)ncn3)sc21 [Compound XXIV-C, (S)-2′-((6-((tetrahydrofuran-3-yl)amino)pyrimidin-4-yl)amino)spiro[cyclohexane-1,4′-thieno[2,3-c]pyrrol]-6′(5′H)-one] |  | 0.1 to 10 | 10 to 100
O=C1NC2(CCCCC2)c2cc(Nc3ncnc4[nH]ncc34)sc21 [Compound XVII-B, 2′-((1H-pyrazolo[3,4-d]pyrimidin-4-yl)amino)spiro[cyclohexane-1,4′-thieno[2,3-c]pyrrol]-6′(5′H)-one] |  | 0.1 to 10 | 100 to 1000
Nc1cc(Nc2c(=O)n3c(c4ccccc24)C(=O)NC32CCCCC2)ncn1 [Compound III, 6′-((6-Aminopyrimidin-4-yl)amino)-2′H-spiro[cyclohexane-1,3′-imidazo[5,1-a]isoquinoline]-1′,5′-dione] | > 1000 | > 1000 | 
Cc1cc(Nc2cc(Nc3ccc(N4CCCCC4)cn3)ncn2)[n+]([O-])c2c1C(=O)NC21CCCCC1 [Compound XXIX-AAM, 4′-methyl-5′-oxo-2′-((6-((5-(piperidin-1-yl)pyridin-2-yl)amino)pyrimidin-4-yl)amino)-5′,6′-dihydrospiro[cyclohexane-1,7′-pyrrolo[3,4-b]pyridine] 1′-oxide] |  | 0.1 to 10 | 0.1 to 10

Further lines, results first:

IC50 (MNK1) [nM] | IC50 (MNK2) [nM] | IC50 (TMD-8 cell p-IF4E) [nM] | SMILES
> 1000 | > 1000 |  | Nc1cc(Nc2c3c(c4n(c2=O)C2(CCCCC2)NC4=O)CCC3)ncn1 [Compound I, 6′-((6-Aminopyrimidin-4-yl)amino)-8′,9′-dihydrospiro[cyclohexane-1,3′-cyclopenta[c]imidazo[1,5-a]pyridine]-1′,5′(2′H,7′H)-dione]
0.1 to 10 | 0.1 to 10 |  | Cc1cc(Nc2cc(N)ncn2)c(=O)n2c1C(=O)N[C@@]21C[C@H]2CC[C@@H]1C2 [Compound IIb, (1R,2S,4S)-6′-((6-aminopyrimidin-4-yl)amino)-8′-methyl-2′H-spiro[bicyclo[2.2.1]heptane-2,3′-imidazo[1,5-a]pyridine]-1′,5′-dione]
 | 0.1 to 10 | 100 to 1000 | CNC(=O)Nc1cc(Nc2nc3c(s2)C(=O)NC32CCCCC2)ncn1 [Compound XXVIII-L, 1-methyl-3-(6-((6′-oxo-5′,6′-dihydrospiro[cyclohexane-1,4′-pyrrolo[3,4-d]thiazol]-2′-yl)amino)pyrimidin-4-yl)urea]
 | 0.1 to 10 | 0.1 to 10 | Cc1cc(Nc2cc(Nc3ccc(N4CCNCC4)cn3)ncn2)[n+]([O-])c2c1C(=O)NC21CCCCC1 [Compound XXIX-AAL, 4′-methyl-5′-oxo-2′-[(6-{[5-(piperazin-1-yl)pyridin-2-yl]amino}pyrimidin-4-yl)amino]-6′H-spiro[cyclohexane-1,7′-pyrrolo[3,4-b]pyridin]-1′-ium-1′-olate]
 | 0.1 to 10 | 0.1 to 10 | O=C1NC2(CCCCC2)c2cc(Nc3ncnc4[nH]c(C5CC5)cc34)sc21 [Compound XXXI-A, 2′-((6-cyclopropyl-7H-pyrrolo[2,3-d]pyrimidin-4-yl)amino)spiro[cyclohexane-1,4′-thieno[2,3-c]pyrrol]-6′(5′H)-one]

Source: patent US20240092799A1, “MNK INHIBITORS” (Hepagene Therapeutics (HK) Limited, priority 2020, published 2024)
